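Dose response: 5 concentrations. Exposure: 48 h. Format: 96-well plates. Endpoint: linear interpolation; highest concentration if not reached. GI50 is the concentration that inhibits growth by half.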 Active and inactive are the calls of the source. Rule as the data show it: active = GI50 up to about 1.1 µM and inactive = higher.
Columns and labels:
Experiment in all cases: DTP human tumour cell line panel, 48 h
[1] = tested on: IGROV-1
[2] = tested on: EKVX
[3] = tested on: KM12
[4] = tested on: U-251
[5] = tested on: NCI-H23
[6] = tested on: HT-29
[7] = tested on: A549
[8] = tested on: ACHN
[9] = tested on: SK-OV-3
[10] = tested on: M14
[11] = tested on: SNB-19
[12] = tested on: SF-268
[13] = tested on: SF-295
[14] = tested on: RPMI-8226
[15] = tested on: SK-MEL-5
[16] = tested on: OVCAR-5
[17] = tested on: HCT-15
[18] = tested on: NCI-H226
[19] = tested on: DMS-273
[20] = tested on: XF498
[21] = tested on: NCI-H460
[22] = tested on: SNB-78
[23] = tested on: HOP-62
[24] = tested on: A498
[25] = tested on: KM-20L2
[26] = tested on: LXFL 529
[27] = tested on: M19-MEL
[28] = tested on: OVCAR-3
[29] = tested on: SR
[30] = tested on: OVCAR-8
[31] = tested on: OVCAR-4
[32] = tested on: SF-539
[33] = tested on: TK-10
[34] = tested on: SK-MEL-28
[35] = tested on: SW-620
[36] = tested on: K562
[37] = tested on: LOX IMVI
[38] = tested on: UO-31
[39] = tested on: DMS-114
[40] = tested on: COLO 205
[41] = tested on: HOP-92
[42] = tested on: SK-MEL-2
[43] = tested on: UACC-62
[44] = tested on: MOLT-4
[45] = tested on: CAKI-1
[46] = tested on: CCRF-CEM
[47] = tested on: HCT-116
[48] = tested on: 786-0
[49] = tested on: NCI-H522
[50] = tested on: UACC-257
[51] = tested on: HL-60
[52] = tested on: MDA-N
[53] = tested on: NCI/ADR-RES
[54] = tested on: Hs-578T
[55] = tested on: RXF 393
[56] = tested on: MDA-MB-231
[57] = tested on: BT-549
[58] = tested on: SN12C
[59] = tested on: HCC 2998
[60] = tested on: SNB-75
[61] = tested on: PC-3
[62] = tested on: DU-145
[63] = tested on: Malme-3M
[64] = tested on: MCF7
[65] = tested on: T47D
[66] = tested on: MDA-MB-435

CCOC(=O)/C(=C/c1cccc(OC)c1)N(CC)CC
GI50 [1]: > 100 µM (inactive) | GI50 [2]: > 100 µM (inactive) | GI50 [3]: > 100 µM (inactive) | GI50 [4]: > 100 µM (inactive) | GI50 [5]: > 100 µM (inactive) | GI50 [6]: > 100 µM (inactive) | GI50 [7]: > 100 µM (inactive) | GI50 [8]: > 100 µM (inactive) | GI50 [9]: > 100 µM (inactive) | GI50 [10]: > 100 µM (inactive) | GI50 [11]: > 100 µM (inactive) | GI50 [12]: > 100 µM (inactive) | GI50 [13]: > 100 µM (inactive) | GI50 [14]: > 100 µM (inactive) | GI50 [15]: > 100 µM (inactive) | GI50 [16]: > 100 µM (inactive) | GI50 [17]: > 100 µM | GI50 [18]: > 100 µM (inactive) | GI50 [19]: > 100 µM (inactive) | GI50 [20]: > 100 µM (inactive) | GI50 [21]: > 10 µM (inactive) | GI50 [22]: > 100 µM (inactive) | GI50 [23]: > 100 µM (inactive) | GI50 [24]: > 100 µM (inactive) | GI50 [25]: > 100 µM (inactive) | GI50 [26]: > 100 µM (inactive) | GI50 [27]: > 100 µM (inactive) | GI50 [28]: > 100 µM (inactive) | GI50 [29]: > 100 µM (inactive) | GI50 [30]: > 100 µM (inactive) | GI50 [31]: > 100 µM (inactive) | GI50 [32]: > 100 µM (inactive) | GI50 [33]: > 100 µM (inactive) | GI50 [34]: > 100 µM (inactive) | GI50 [35]: > 100 µM (inactive) | GI50 [36]: > 100 µM (inactive) | GI50 [37]: > 100 µM (inactive) | GI50 [38]: > 100 µM (inactive) | GI50 [39]: > 100 µM (inactive) | GI50 [40]: > 100 µM (inactive) | GI50 [41]: > 100 µM (inactive) | GI50 [42]: > 100 µM (inactive) | GI50 [43]: > 100 µM (inactive) | GI50 [44]: > 100 µM (inactive) | GI50 [45]: > 100 µM (inactive) | GI50 [46]: > 100 µM (inactive) | GI50 [47]: > 100 µM (inactive) | GI50 [48]: > 100 µM (inactive) | GI50 [49]: > 100 µM (inactive) | GI50 [50]: > 100 µM (inactive) | GI50 [51]: > 100 µM (inactive)

C/C=C/[C@@H](C(=O)OC)N1C(=O)c2ccccc2[C@H]1O
GI50 [52]: > 100 µM (inactive) | GI50 [1]: > 100 µM (inactive) | GI50 [2]: > 100 µM (inactive) | GI50 [3]: > 100 µM (inactive) | GI50 [4]: > 100 µM (inactive) | GI50 [5]: > 100 µM (inactive) | GI50 [53]: > 100 µM (inactive) | GI50 [6]: > 100 µM (inactive) | GI50 [54]: > 100 µM (inactive) | GI50 [55]: > 100 µM (inactive) | GI50 [7]: > 100 µM (inactive) | GI50 [56]: > 100 µM (inactive) | GI50 [8]: > 100 µM (inactive) | GI50 [9]: > 100 µM (inactive) | GI50 [10]: > 100 µM (inactive) | GI50 [11]: > 100 µM (inactive) | GI50 [12]: > 100 µM (inactive) | GI50 [13]: > 100 µM (inactive) | GI50 [14]: > 100 µM (inactive) | GI50 [15]: > 100 µM (inactive) | GI50 [16]: > 100 µM (inactive) | GI50 [57]: > 100 µM (inactive) | GI50 [58]: > 100 µM (inactive) | GI50 [59]: > 100 µM (inactive) | GI50 [17]: > 100 µM | GI50 [60]: > 100 µM (inactive) | GI50 [18]: > 100 µM (inactive) | GI50 [21]: > 100 µM (inactive) | GI50 [23]: > 100 µM (inactive) | GI50 [24]: > 100 µM (inactive) | GI50 [28]: > 100 µM (inactive) | GI50 [61]: > 100 µM (inactive) | GI50 [29]: > 100 µM (inactive) | GI50 [62]: > 100 µM (inactive) | GI50 [30]: > 100 µM (inactive) | GI50 [31]: > 100 µM (inactive) | GI50 [63]: > 100 µM (inactive) | GI50 [32]: > 100 µM (inactive) | GI50 [33]: > 100 µM (inactive) | GI50 [34]: > 100 µM (inactive) | GI50 [35]: > 100 µM (inactive) | GI50 [36]: > 100 µM (inactive) | GI50 [37]: > 100 µM (inactive) | GI50 [38]: > 100 µM (inactive) | GI50 [40]: > 100 µM (inactive) | GI50 [41]: > 100 µM (inactive) | GI50 [42]: > 100 µM (inactive) | GI50 [43]: > 100 µM (inactive) | GI50 [44]: > 100 µM (inactive) | GI50 [64]: > 100 µM (inactive) | GI50 [45]: > 100 µM (inactive) | GI50 [46]: > 100 µM (inactive) | GI50 [47]: > 100 µM (inactive) | GI50 [48]: > 100 µM (inactive) | GI50 [65]: > 100 µM (inactive) | GI50 [49]: > 100 µM (inactive) | GI50 [50]: > 100 µM (inactive) | GI50 [66]: > 100 µM (inactive) | GI50 [51]: > 100 µM (inactive)

Source: ChEMBL document CHEMBL1201862, “PubChem BioAssay data set” (2004)
